# Measurements reported in patent publication US20140045823A1 (Neurocrine Biosciences, Inc., priority 2012, published 2014).
# Molecular target: T1, human GPR119 (Homo sapiens, UniProt Q8TDV5)
# T1 construct: expression vector for human GPR119 cDNA (Acc. No. NP_848566); expressed in transfected cells; Min-6/hGPR119
# T1 sequence (Q8TDV5 1-335): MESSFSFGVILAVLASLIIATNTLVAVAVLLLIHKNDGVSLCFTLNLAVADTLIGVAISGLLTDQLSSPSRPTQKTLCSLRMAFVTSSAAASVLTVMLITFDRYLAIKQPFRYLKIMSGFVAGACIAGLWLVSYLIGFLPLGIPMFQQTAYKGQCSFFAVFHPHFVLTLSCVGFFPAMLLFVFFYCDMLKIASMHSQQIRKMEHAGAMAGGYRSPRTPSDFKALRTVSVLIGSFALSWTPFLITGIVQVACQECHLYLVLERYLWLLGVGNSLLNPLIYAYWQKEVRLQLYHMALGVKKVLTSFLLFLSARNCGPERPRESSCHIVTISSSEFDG
# Experiment: AlphaScreen cAMP assay in MIN6 cells stably transfected with human GPR119
# Type: cell-based
# Conditions: Min-6/hGPR119 cells, 45 min at room temperature
# Procedure, shortened: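 cAMP accumulation quantified by AlphaScreen after 45 min compound stimulation at about 20 °C. Stimulation buffer: pH 7.4 HEPES saline with 0.5 mM IBMX, 0.1% BSA, 1% DMSO final. Cells: MIN6 stably transfected with human GPR119, 10000/well, cultured 24 h beforehand.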
row,Structure (SMILES),EC50
1,"CC(C)(C)OC(=O)N1CCC(N(C(=O)c2cnc(-c3ccc(C(=O)NCCOC(F)(F)F)cc3)nc2)C2CC2)CC1 [Example 227, 4-(Cyclopropyl-{2-[4-(2-trifluoromethoxy-ethylcarbamoyl)-phenyl]-pyrimidine-5-carbonyl]-amino)-piperidine-1-carboxylic acid tert-butyl ester]",161 nM
2,"CC(C)(C)OC(=O)N1CCC(N(C(=O)c2cnc(-c3ccc(C(=O)NCc4cccnc4)cc3)nc2)C2CC2)CC1 [Example 229, 4-[Cyclopropyl-(2-{4-[(pyridin-3-ylmethyl)-carbamoyl]-phenyl}-pyrimidine-5-carbonyl)-amino]-piperidine-1-carboxylic acid tert-butyl ester]",177 nM
3,"CC(C)(C)OC(=O)N1CCC(N(C(=O)c2cnc(-c3ccc(C(=O)N4CCOCC4)cc3)nc2)C2CC2)CC1 [Example 230, 4-(Cyclopropyl-{2-[4-(morpholine-4-carbonyl)-phenyl]-pyrimidine-5-carbonyl}-amino)-piperidine-1-carboxylic acid tert-butyl ester]",297 nM
4,"CN(CCC#N)C(=O)c1ccc(-c2ncc(C(=O)N(C3CC3)C3CCN(C(=O)OC(C)(C)C)CC3)cn2)cc1F [Example 234, 4-[(2-{4-[(2-Cyano-ethyl)-methyl-carbamoyl]-3-fluoro-phenyl}-pyrimidine-5-carbonyl)-cyclopropyl-amino]-piperidine-1-carboxylic acid tert-butyl ester]",297 nM
5,"CC(C)(C)OC(=O)N1CCC(N(C(=O)c2cnc(-c3ccc(C(=O)NCC4CCOC4)cc3)nc2)C2CC2)CC1 (stereo not drawn) [Example 237, 4-[Cyclopropyl-(2-{4-[(tetrahydro-furan-3-ylmethyl)-carbamoyl]-phenyl}-pyrimidine-5-carbonyl)-amino]-piperidine-1-carboxylic acid tert-butyl ester]",408 nM
6,"COCc1cccc(NC(=O)c2ccc(-c3ncc(C(=O)N(C4CC4)C4CCN(C(=O)OC(C)(C)C)CC4)cn3)cc2)c1 [Example 240, 4-(Cyclopropyl-{2-[4-(3-methoxymethyl-phenylcarbamoyl)-phenyl]-pyrimidine-5-carbonyl}-amino)-piperidine-1-carboxylic acid tert-butyl ester]",171 nM
7,"CC(C)(C)OC(=O)N1CCC(N(C(=O)c2cnc(-c3ccc(C(=O)NCc4ccncc4)cc3)nc2)C2CC2)CC1 [Example 241, 4-[Cyclopropyl-(2-{4-[(pyridin-4-ylmethyl)-carbamoyl]-phenyl}-pyrimidine-5-carbonyl)-amino]-piperidine-1-carboxylic acid tert-butyl ester]",245 nM
8,"COCCNC(=O)c1ccc(-c2ncc(C(=O)N(C3CC3)C3CCN(C(=O)OC(C)(C)C)CC3)cn2)cc1 [Example 243, 4-(Cyclopropyl-{2-[4-(2-methoxy-ethylcarbamoyl)-phenyl]-pyrimidine-5-carbonyl}-amino)-piperidine-1-carboxylic acid tert-butyl ester]",309 nM
9,"CC(C)(C)OC(=O)N1CCC(N(C(=O)c2cnc(-c3ccc(C(=O)NCC4CCCO4)cc3)nc2)C2CC2)CC1 (stereo not drawn) [Example 244, 4-[Cyclopropyl-(2-{4-[(tetrahydro-furan-2-ylmethyl)-carbamoyl]-phenyl)-pyrimidine-5-carbonyl)-amino]-piperidine-1-carboxylic acid tert-buyl ester]",237 nM
10,"CC(C)(C)OC(=O)N1CCC(N(C(=O)c2cnc(-c3ccc(C(=O)N4CCC[C@@H]4C#N)cc3)nc2)C2CC2)CC1 [Example 245, 4-({2-[4-(2-Cyano-pyrrolidine-1-carbonyl)-phenyl]-pyrimidine-5-carbonyl}-cyclopropyl-amino)-piperidine-1-carboxylic acid tert-butyl ester]",322 nM
11,CC(C)(C)OC(=O)N1CCC(N(C(=O)c2cnc(-n3ccnc3)nc2)C2CC2)CC1 [Example 247],51 nM
12,"C[C@H](OC(=O)N1CCC(N(C(=O)c2cnc(-c3cnco3)cn2)C2CC2)CC1)C(F)(F)F [Example 258, 4-[Cyclopropyl-(5-oxazol-5-yl-pyrazine-2-carbonyl)-amino]-piperidine-1-carboxylic acid (S)-2,2,2-trifluoro-1-methyl-ethyl ester]",61 nM

# Second part, the compound after the results:
row,EC50,Structure (SMILES)
1,379 nM,"CC(C)(C)OC(=O)N1CCC(N(C(=O)c2cnc(-c3ccc(C(=O)NCc4cocn4)cc3)nc2)C2CC2)CC1 [Example 228, 4-[Cyclopropyl-(2-{4-[(oxazol-4-ylmethyl)-carbamoyl]-phenyl}-pyrimidine-5-carbonyl)-amino]-piperidine-1-carboxylic acid tert-butyl ester]"
2,414 nM,"CC(C)(C)OC(=O)N1CCC(N(C(=O)c2cnc(-c3ccc(C(=O)Nc4ccnnc4)cc3)nc2)C2CC2)CC1 [Example 231, 4-(Cyclopropyl-{2-[4-(pyridazin-4-ylcarbamoyl)-phenyl]-pyrimidine-5-carbonyl}-amino)-piperidine-1-carboxylic acid tert-butyl ester]"
3,422 nM,"CC(C)(C)OC(=O)N1CCC(N(C(=O)c2cnc(-c3ccc(C(=O)NCc4cccnn4)c(F)c3)nc2)C2CC2)CC1 [Example 232, 4-[Cyclopropyl-(2-{3-fluoro-4-[(pyridazin-3-ylmethyl)-carbamoyl]-phenyl}-pyrimidine-5-carbonyl)-amino]-piperidine-1-carboxylic acid tert-butyl ester]"
4,307 nM,"COC[C@H]1CCCN1C(=O)Cc1ccc(-c2ncc(C(=O)N(C3CC3)C3CCN(C(=O)OC(C)(C)C)CC3)cn2)cc1 [Example 235, 4-[Cyclopropyl-(2-{4-[2-(2-methoxymethyl-pyrrolidin-1-yl)-2-oxo-ethyl]-phenyl}-pyrimidine-5-carbonyl)-amino]-piperidine-1-carboxylic acid tert-butyl ester]"
5,317 nM,"CN(Cc1cccnc1)C(=O)Cc1ccc(-c2ncc(C(=O)N(C3CC3)C3CCN(C(=O)OC(C)(C)C)CC3)cn2)cc1 [Example 236, 4-[Cyclopropyl-(2-{4-[(methyl-pyridin-3-ylmethyl-carbamoyl)-methyl]-phenyl}-pyrimdine-5-carbonyl)-amino]-piperidine-1-carboxylic acid tert-butyl ester]"
6,111 nM,"COc1ccc(NC(=O)c2ccc(-c3ncc(C(=O)N(C4CC4)C4CCN(C(=O)OC(C)(C)C)CC4)cn3)cc2)c(OC)c1 [Example 238, 4-(Cyclopropyl-{2-[4-(2,4-dimethoxy-phenylcarbamoyl)-phenyl]-pyrimidine-5-carbonyl}-amino)-piperidine-1-carboxylic acid tert-butyl ester]"
7,424 nM,"CC(C)(C)OC(=O)N1CCC(N(C(=O)c2cnc(-c3ccc(C(=O)N4CCC(C#N)C4)cc3)nc2)C2CC2)CC1 (stereo not drawn) [Example 239, 4-({2-[4-(3-Cyano-pyrrolidine-1-carbonyl)-phenyl]-pyrimidine-5-carbonyl}-cyclopropyl-amino)-piperidine-1-carboxylic acid tert-butyl ester]"
8,593 nM,"CC(C)(C)OC(=O)N1CCC(N(C(=O)c2cnc(-c3ccc(C(=O)N4CCCC4CO)cc3)nc2)C2CC2)CC1 (stereo not drawn) [Example 242, 4-(Cyclopropyl-{2-[4-(2-hydroxymethyl-pyrrolidine-1-carbonyl)-phenyl]-pyrimidine-5-carbonyl}-amino)-piperidine-1-carboxylic acid tert-butyl ester]"
9,169 nM,"Cc1cnc(CNC(=O)c2ccc(-c3ncc(C(=O)N(C4CC4)C4CCN(C(=O)OC(C)(C)C)CC4)cn3)cc2)s1 [Example 246, 4-[Cyclopropyl-(2-{4-[(5-methyl-thiazol-2-ylmethyl)-carbamoyl]-phenyl}-pyrimidine-5-carbonyl)-amino]-piperidine-1-carboxylic acid tert-butyl ester]"
